This note sets out measurements from patent publication US20250049967A1, “PET TRACERS FOR V[…] GAMMA1 RECEPTORS” (Hoffmann-La Roche Inc., priority 2022, published 2025).

As usually defined, the Ki is the equilibrium dissociation constant of an inhibitor or competing ligand from its target. The low end stands for tighter binding, the high end for weaker binding.

Data set [1] concerns the target human GABAA α1β3γ2 receptor (Homo sapiens (Human), UniProt P14867+P18507). The data set is described as follows: Binding assay, competition for [^3H]Flumazenil, HEK293F cells. Particulars: for γ2/γ1 Selectivity Ratio: Ki α1β3γ2 (nM)/Ki α2β2γ1 (nM). Here is the method:
The affinity of compounds at GABAA γ2 subunit-containing receptors was measured by competition for [^3H]Flumazenil (81.1 Ci/mmol; Roche) binding to HEK293F cells expressing human (transiently transfected) receptors of composition α1β3γ2.
Harvested pellets from HEK293F cells expressing the different GABAA γ2 receptor subtypes were resuspended in Mannitol Buffer pH 7.2-7.4 and processed as described above for the cells expressing the GABAA γ1 subunit-containing receptors.
Assays were incubated to equilibrium for 1 hour at 4° C. and harvested onto GF/C uni-filters (Packard) by filtration using a Packard harvester and washing with ice-cold wash buffer (50 mM Tris; pH 7.5). After anhydrousing, filter-retained radioactivity was detected by liquid scintillation counting. Ki values were calculated using Excel-Fit (Microsoft) and are the means of two determinations.

The target in the next data set is h-GABA-A α2β2γ1 receptor (Homo sapiens (Human), UniProt P47869+Q8N1C3). The data set is described as follows: Xenopus oocyte two-electrode voltage clamp electrophysiology, modulation of GABA EC20 current. To be noted: for Efficacy (GABA)%: % modulation of GABA EC20 = 100*(Fold increase−1), compound at 30-fold Ki α2β2γ1; for Potentiation of GABA-induced current in α2β2γ1 expressing oocytes: reference PAMs, GABA EC20. It counts as cell-based. Here is the method: Xenopus laevis oocytes at maturation stages V-VI were used for the expression of cloned mRNA encoding GABAA receptor subunits. Oocytes ready for RNA micro-injection were bought from Ecocyte, Castrop-Rauxel, Germany and stored in modified Barth's medium (composition in mM: NaCl 88, KCl 1, NaHCO3 2.4, HEPES 10, MgSO4 0.82, CaNO3 0.33, CaCl2 0.33, pH=7.5) at 20° C. until the experiment.
Oocytes were plated in 96-well plates for microinjection using the Roboinject automated instrument (MultiChannelSystems, Reutlingen, Germany). Approximately 50 nL of an aqueous solution containing the RNA transcripts for the subunits of the desired GABAA receptor subtype was injected into each oocyte. […] Oocytes were kept in modified Barth's medium (composition in mM: NaCl 88, KCl 1, NaHCO3 […], HEPES 10, MgSO4 0.82, CaNO3 0.33, CaCl2 0.33, pH=7.5) at 20° C. until the experiment.
Electrophysiological experiments were performed using the Roboocyte instrument (MultiChannelSystems, Reutlingen, Germany) on days 3 to 5 after the micro-injection of mRNA. During the experiment the oocytes were constantly superfused by a solution containing (in mM) NaCl 90, KCl 1, HEPES 5, MgCl2 1, CaCl2 1 (pH 7.4). Oocytes were impaled by two glass microelectrodes (resistance: 0.5-0.8 MΩ) which were filled with a solution containing KCl 1M+K-acetate 1.5 M and voltage-clamped to −80 mV. The recordings were performed at room temperature using the Roboocyte two-electrode voltage clamp system (Multichannelsystem). After an initial equilibration period of 1.5 min GABA was added for 1.5 min at a concentration evoking approximately 20% of a maximal current response (EC20). After another rest interval of 2.5 min GABA was again added evoking a response of similar amplitude and shape. […] Current traces were recorded at a digitization rate of 10 Hz during and shortly before and after the GABA application.
Each compound and concentration was tested on at least 3 oocytes. Different oocytes were used for different compound concentrations.
For the analysis, the digitized current traces of the first and second GABA response were superimposed and, if necessary, rescaled to equal maximal amplitudes. The ratio between the two responses during the time interval of test compound application was calculated point by point. The extremum of the resulting “ratio trace” was taken as the efficacy (“Fold increase”) of the compound expressed as “% modulation of GABA EC20” (100*(Fold increase−1)).
In general terms: Two-electrode voltage clamp holds a large cell at a set potential and records current.

Data set [2] has as its target human GABAA α1β2γ1 receptor (Homo sapiens (Human), UniProt P14867+Q8N1C3). The data set is described as follows: Binding assay, competition for [^3H]RO7239181, membranes from HEK293F cells. Here is the method:
(§1) Harvested pellets from HEK293F cells expressing the different GABAA receptor subtypes were resuspended in Mannitol Buffer pH 7.2-7.4 (Mannitol 0.29M, Triethylamine 10 mM, Acetic acid 10 mM, EDTA 1 mM plus protease inhibitors (20 tablets Complete, Roche Diagnostics Cat. No. 05 056 489 001 per liter)), washed two times and then resuspended at 1:10 to 1:15 dilution in the same buffer. Cell disruption was performed by stirring the suspension in a Parr vessel #4637 at 435 psi for 15 minutes, and then the suspensions were centrifuged at 1000×g for 15 minutes at 4° C. (Beckman Avanti J-HC; rotor JS-4.2). The supernatant (S1) was transferred in a 2 l Schott flask and the pellet (P1) was resuspended with Mannitol Buffer up to 175 ml. The resuspended pellet was transferred into a 250 ml Corning centrifugal beaker and centrifuged at 1500×g for 10 minutes at 4° C. (Beckman Avanti J-HC; rotor JS-4.2). The supernatant (S1) was then transferred in the 2 l Schott flask and the pellet was discarded. […] The P2 and P3 protein concentration was determined with the BIORAD Standard assay method with bovine serum albumin as standard and measured on the NANO-Drop 1000. […]
(§2) Membrane homogenates were resuspended and polytronised (Polytron PT1200E Kinematica AG) in Potassium Phosphate 10 mM, KCl 100 mM binding buffer at pH 7.4 to a final assay concentration determined with a previous experiment. […]

Data set [3] has as its target human GABAA α2β2γ1 receptor (Homo sapiens (Human), UniProt P47869+Q8N1C3). The data set is described as above. Here is the method:
as §1, §2

Data set [4] concerns the target GABAA γ1 receptor (Mus musculus (Mouse), UniProt Q9R0Y8). Nature of the data set: In vitro autoradiography, coronal brain sections of GABAA γ1 knockout and wild-type mice. To be noted: 0.3 nM radioligand, 30 minutes room temperature, knockout vs wild-type mouse brain sections. It counts as binding. Here is the method: Autoradiographical analyses of [^3H]-(I) and [^3H]-(II) were performed with coronal brain sections from GABAA γ1 receptor knockout mice (C57BL/6NTac-Gabrg1) and wild-type controls. Tissue sections (10 μm) were cut in a cryostat, thaw-mounted on microscope glass slides and incubated in incubation buffer (50 mM Tris-HCl, pH 7.4) containing 0.3 nM radioligand (molar activity 83 Ci/mmol and 81 Ci/mmol for [^3H]-(II) and [^3H]-(I), respectively) at room temperature for 30 minutes. After incubation, all sections were rinsed three times in ice-cold wash buffer (50 mM Tris-HCl, pH 7.4) for 10 minutes and dipped three times in distilled water at 4° C. Slide-mounted brain sections were dried in a ventilated fridge for at least 2 hours and exposed to a Fuji Imaging Plate for 5 days. The imaging plate was scanned at a resolution of 25 μm in a Fujifilm high-resolution plate scanner. Visualization and quantification of autoradiographies was performed by the MCID™ image analysis program.

Data set [5] deals with GABAA γ1 receptor. The data set is described as follows: In vivo PET scans in baboons, regional time-activity curves. Further details: species or system papio anubis olive brown baboons. To be noted: baboon, intravenous bolus approx. 700 MBq, 90 min scan. Here is the method:
PET imaging experiments were performed in male papio anubis olive brown baboons to examine the characteristics of [^11C]-(I) and [^11C]-(II) in vivo. The final radiotracer product was radiochemically pure (>95%) up to 40 min post its end of synthesis with an average final calculated specific activity of >555 GBq/μmol. The PET camera used was the Siemens HRRT with an in-plane field-of-view (FOV) of 30 cm and an axial FOV of 24 cm. Each dynamic PET scan started with an intravenous bolus injection of the radiotracer (approx. 700 MBq) and continued for 90 min in a 3D list mode. A set of volumes of interest (VOIs) for 16 brain regions were defined on MRIs of individual animals referring to a standard VOI template. VOIs were transferred to PET space using the coregistration parameters to generate time-activity curves (TACs) of brain regions.

Chain of GABAA γ1 receptor (Mus musculus (Mouse), UniProt Q9R0Y8) (Q9R0Y8 36-465 limits assumed): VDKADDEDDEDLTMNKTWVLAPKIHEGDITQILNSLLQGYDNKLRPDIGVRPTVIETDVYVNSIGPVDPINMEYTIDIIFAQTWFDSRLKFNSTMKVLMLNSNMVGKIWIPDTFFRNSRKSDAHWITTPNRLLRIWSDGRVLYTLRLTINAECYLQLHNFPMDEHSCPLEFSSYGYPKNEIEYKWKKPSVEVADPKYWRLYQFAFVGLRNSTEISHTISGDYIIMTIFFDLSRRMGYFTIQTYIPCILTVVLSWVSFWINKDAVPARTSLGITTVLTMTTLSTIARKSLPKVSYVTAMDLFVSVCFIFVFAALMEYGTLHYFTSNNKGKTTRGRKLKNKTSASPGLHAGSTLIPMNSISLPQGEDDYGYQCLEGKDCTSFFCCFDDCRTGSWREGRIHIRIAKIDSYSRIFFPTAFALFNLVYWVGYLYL

For `CN1C(=O)CN=C(c2cc(O)ccc2F)c2c1ccc(Cl)c2Cl` [Example 1, 6,7-dichloro-5-(2-fluoro-5-hydroxy-phenyl)-1-methyl-3H-1,4-benzodiazepin-2-one], the “γ2/γ1 Selectivity Ratio” value in data set [1] worked out at 12.7. Further, the “Efficacy (GABA)%” value on h-GABA-A α2β2γ1 receptor is on record as 90%.

As for `Cc1ccc2c(c1Cl)C(c1cc(O)ccc1F)=NCC(=O)N2C` [Example 2, 6-chloro-5-(2-fluoro-5-hydroxy-phenyl)-1,7-dimethyl-3H-1,4-benzodiazepin-2-one], the “γ2/γ1 Selectivity Ratio” value in data set [1] is reported as 39.0. Also, the “Efficacy (GABA)%” value at h-GABA-A α2β2γ1 receptor worked out at 70%.

For the molecule `CN1C(=O)CN=C(c2ccccc2F)c2cc([N+](=O)[O-])ccc21` [Flunitrazepam], the “Potentiation of GABA-induced current in α2β2γ1 expressing oocytes” value (“Potentiation of GABA-induced current” below) on h-GABA-A α2β2γ1 receptor is recorded as around 60%.

For the molecule `Cc1ncc2n1-c1ccc(Cl)cc1C(c1ccccc1F)=NC2` [Midazolam], on h-GABA-A α2β2γ1 receptor, the “Potentiation of GABA-induced current” value is given as around 60%.

For `CN1C(=O)CN=C(c2cc(O)ccc2Cl)c2cc(Cl)ccc21` [RE-A, reference compound], the inhibition constant (Ki) worked out at 1.5 nM in data set [1], 6.84 nM in data set [2] and 2.79 nM in data set [3]. In data set [1], the “γ2/γ1 Selectivity Ratio” value is reported as 0.54.

As to `Cc1nnc2n1-c1ccc(Cl)cc1C(c1ccccc1Cl)=NC2` [Triazolam], the “Potentiation of GABA-induced current” value on h-GABA-A α2β2γ1 receptor is reported as around 60%.

As for `[3H]C([3H])([3H])N1C(=O)CN=C(c2cc(O)ccc2F)c2c1ccc(Cl)c2Cl` [[^3H]-(I), 6,7-Dichloro-5-(2-fluoro-5-hydroxy-phenyl)-1-([^3H3]methyl)-3H-1,4-benzodiazepin-2-one], the “Specific binding in the amygdala” value at GABAA γ1 receptor [4] is given as 65%.

Take `[3H]C([3H])([3H])N1C(=O)CN=C(c2cc(O)ccc2F)c2c1ccc(C)c2Cl` [[^3H]-(II), 6-Chloro-5-(2-fluoro-5-hydroxy-phenyl)-7-methyl-1-([^3H3]methyl)-3H-1,4-benzodiazepin-2-one]: on GABAA γ1 receptor [4], the “Specific binding in the amygdala” value was determined as 97%.

Regarding `[11CH3]N1C(=O)CN=C(c2cc(O)ccc2F)c2c1ccc(Cl)c2Cl` [[^11C]-(I), [^11C]6,7-Dichloro-5-(2-fluoro-5-hydroxy-phenyl)-1-methyl-3H-1,4-benzodiazepin-2-one], in the data set on GABAA γ1 receptor [5], the Brain clearance entry is “Slower clearance”.

For the molecule `Cc1ccc2c(c1Cl)C(c1cc(O)ccc1F)=NCC(=O)N2[11CH3]` [[^11C]-(II), [^11C]6-Chloro-5-(2-fluoro-5-hydroxy-phenyl)-1,7-dimethyl-3H-1,4-benzodiazepin-2-one], in the data set on GABAA γ1 receptor [5] (comparison of tracers), the “Time of brain uptake peaks” value was “earlier peaks than [^11C]-(I)”.
